Laboratory results taken from patent US9102665B2, “Cysteinyl leukotriene antagonists” (Sun Pharma Advanced Research Company Ltd., priority 2011, dated 2015).

Target: T1, Leukotriene, Cysteinyl CysLT1 (Cavia porcellus, UniProt Q2NNR5)
T1 construct: from tissue; host or cells: guinea pig lung membrane
T1 sequence (Q2NNR5 1-340): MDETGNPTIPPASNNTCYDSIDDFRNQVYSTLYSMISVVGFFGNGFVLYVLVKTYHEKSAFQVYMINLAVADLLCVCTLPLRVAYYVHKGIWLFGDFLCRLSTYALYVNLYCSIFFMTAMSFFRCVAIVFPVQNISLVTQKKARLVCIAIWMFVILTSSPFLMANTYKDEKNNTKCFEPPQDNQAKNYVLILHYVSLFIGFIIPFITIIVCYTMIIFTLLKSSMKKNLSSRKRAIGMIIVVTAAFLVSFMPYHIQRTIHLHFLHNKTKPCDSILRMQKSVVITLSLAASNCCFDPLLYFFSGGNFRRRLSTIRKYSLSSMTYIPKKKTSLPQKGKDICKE
Test: receptor radio-ligand-binding assay (Tritiated LTD4 as the ligand), Guinea pig lung membrane
Settings: 0.5 h, 0.2 nM 3H LTD4, Guinea pig lung membrane; for inhibition at 0.001 µM: 1 nM test compound, read-out: % Inhbition (in nM) 1; for inhibition at 0.003 µM: 3 nM test compound, read-out: % Inhbition (in nM) 3; for inhibition at 0.01 µM: 10 nM test compound, read-out: % Inhbition (in nM) 10
Method: The primary in-vitro biological screening for the compounds carried-out involving receptor radio-ligand-binding assay (Tritiated LTD4 as the ligand) by known methods described in literature [a). Mong et al. European Journal of Pharmacology (102); 1984 1-11b). Jones et al; Journal of Physiology & Pharmacology (73); 1994, 191-201 c). MDS Pharma Services: 250460 Leukotriene, Cysteinyl CysLT1]. Accordingly, Guinea pig lung membrane (100 ug) is incubated with 0.2 nM 3H LTD4 in presence of Reference Standard/Test item/Vehicle Control. Non Specific Binding is determined by incubating the membrane with 0.2 nM 3H LTD4 in presence of 1 uM of unlabeled LTD4. The samples are incubated at 26° C. for 30 minutes and are vacuum filtered on a membrane to separate the bound and free radioligand. The membrane is counted in a liquid scintillation counter to calculate the bound radioactivity. Specific Binding in Vehicle treated and Reference Standard/Test item treated set is compared to evaluate the % Inhibition values. Some of the compounds have shown >50% inhibition in the presence of ≦3 nano-molar concentration of the compounds of present invention as shown in the following table.

| SMILES | inhibition at 0.001 µM | inhibition at 0.003 µM | inhibition at 0.01 µM |
| --- | --- | --- | --- |
| COc1ccc(C=CC2(c3cccc(/C=C/c4ccc5ccc(Cl)cc5n4)c3)OCCO2)c(C(=O)O)c1 [Ib.79] | 67% | 78% | 86% |
| CCOc1ccc(CCC2(c3cccc(/C=C/c4ccc5ccc(Cl)cc5n4)c3)OCCO2)c(C(=O)O)c1 [Ib.86] | 6% | 38% | 53% |
| C#CCOc1ccc(CCC2(c3cccc(/C=C/c4ccc5ccc(Cl)cc5n4)c3)OCCO2)c(C(=O)O)c1 [Ib.93] | 14% | 20% | 60% |
| O=C(O)c1cc(Cl)ccc1CCC1(c2cccc(/C=C/c3ccc4ccc(Cl)cc4n3)c2)OCCO1 [Ib.111] | 65% | 84% | 91% |
| COc1cc(C(=O)O)c(CCC2(c3cccc(/C=C/c4ccc5ccc(Cl)cc5n4)c3)OCCO2)c(OC)c1OC [Ib.113] | 48% | 68% | 85% |
| COc1cc(C(=O)O)c(CCC2(c3cccc(/C=C/c4ccc5ccc(Cl)cc5n4)c3)OCCCO2)cc1[N+](=O)[O-] [Ib.123] | 58% | 81% | 86% |
| O=C(O)c1cc2c(cc1CCC1(c3cccc(/C=C/c4ccc5ccc(Cl)cc5n4)c3)OCCCO1)OCO2 [Ib.133] | 41% | 57% | 80% |
| COc1ccc(CCC2(c3cccc(/C=C/c4ccc5ccc(Cl)cc5n4)c3)OCCO2)c(-c2nnn[nH]2)c1 [Ib.135] | 56% | 77% | 86% |
| O=C(O)c1cc2c(cc1CCC1(c3cccc(/C=C/c4ccc5ccc(Cl)cc5n4)c3)OCCO1)OCCO2 [Ib.139] | 28% | 52% | 82% |
| O=C(O)c1ccc(C(=O)O)c(CCC2(c3cccc(/C=C/c4ccc5ccc(Cl)cc5n4)c3)OCCO2)c1 [Ib.142] | 15% | 49% | 80% |
| CC(ON=C(CCc1ccccc1C(C)(C)O)c1cccc(/C=C/c2ccc3ccc(Cl)cc3n2)c1)C(=O)O (stereo not drawn) [Ib.148] | 20% | 16% | 31% |
